# Laboratory results as given in patent US4774248A, “Methods of treating depression and depressive states using 5-phenyl-1,4,5,6-tetrahydropyrimidine derivatives” (priority 1985, dated 1988).
# Entries after “also recorded” stand apart in the source; their conditions may differ.
# Legend:
# [1] = test system: hypothermia, trembling and peripheral cholinergic symptoms induced by oxotremorine; assay: Interaction with oxotremorine; format: in vivo; details: mice, i.p.; oxotremorine 0.5 mg/kg
# Description: (§1) The results of toxicological and neuropsychopharmacological tests which were carried out with the products according to the invention have been summarized below. In these tests, solutions of the said products in distilled water were administered intraperitoneally in a volume of 20 ml/kg to male mice and in a volume of 5 ml/kg to male rats.
# CRL 41 378 is administered to groups of 6 mice 0.5 h before the intraperitoneal injection of 0.5 mg/kg of oxotremorine.
# [2] = test system: hypothermia, righting behavior and stereotypies induced by apomorphine; assay: Interaction with apomorphine in mice; format: in vivo; details: i.p.
# Description: as §1
# CRL 41 378 is administered to groups of 6 mice 30 minutes before the subcutaneous injection of 1 or 16 mg/kg of apomorphine.
# [3] = test system: pregnant rabbits; assay: Teratogenic effects on pregnant rabbits; format: in vivo
# [4] = test system: mice; assay: Motility reduced by habituation to the enclosure; format: in vivo; details: i.p.
# Description: as §1
# After they have stayed in the actimeters for 18 hours, the mice (6 per dose, 12 control animals) receive CRL 41 378. They are immediately returned to their respective enclosures and, half an hour later, their motility is recorded for 30 minutes.
# [5] = test system: central nervous system (CNS); assay: Neuropsychopharmacological profile (conclusions of the tests); format: in vivo, mice and rats; details: for overall neuropsychopharmacological profile: summary
# Description: as §1
# [6] = test system: mice; assay: Behavioral despair (forced immersion); format: in vivo; details: mice which have been forcibly immersed, i.p.
# Description: as §1
# Half an hour after they have received CRL 41 378, groups of 6 mice are placed in a beaker filled with water to a height of 6 cm. The total period of immobility between the 2nd and 6th minutes following immersion is noted.
# [7] = test system: male mice; assay: Acute toxicity, intraperitoneal (LD0, LD30, LD60, LD100); format: in vivo
# Description: as §1
# [8] = test system: hypothermia and ptosis induced by reserpine; assay: Interaction with reserpine; format: in vivo; details: mice, i.p.; reserpine 2.5 mg/kg
# Description: as §1
# Four hours after the intraperitoneal injection of 2.5 mg/kg of reserpine, groups of 12 mice receive CRL 41 378.
# [9] = test system: depressions and depressive states; assay: Clinical trials in depression and depressive states; format: in vivo, human
# Description: The clinical trials which have been undertaken have made it possible to determine that the daily dose to be administered orally to adults, in the treatment of depressions and depressive states, is generally between 3 and 120 mg for the products of the formulae Ia and Ib according to the invention.
# [10] = test system: trembling and head twitches induced by 5-hydroxytryptophan (5-HTP); assay: Interaction with 5-hydroxytryptophan in association with an MAOI (nialamide); format: in vivo, male mice
# Description: The purpose of the procedure used is to investigate the activity of each product according to the invention as regards the trembling induced by 5-hydroxytryptophan (5-HTP) in association with an MAOI (in this case nialamide).
# Each test product, in solution in distilled water, is administered intraperitoneally in a volume of 20 ml/kg to male mice.
# Groups of 10 mice receive nialamide (20 mg/kg, administered gastrically) at time T-18 h, each test product at time T-0.5 h and then (±)-5-HTP (20 mg/kg, administered intraperitoneally) at time T. Immediately after the injection of the (±)-5-HTP, the mice are individually placed in transparent plastic boxes. The generalized trembling, the partial trembling and the head twitches are noted on a yes/no basis for 2 h.
# [11] = test system: hypothermia induced by apomorphine; assay: Interaction with apomorphine by gastric administration; format: in vivo; details: Mus musculus, male mice, apomorphine 16 mg/kg s.c., read-out: dose as from which the hypothermia induced by apomorphine is opposed
# Description: Each test product is administered gastrically to male mice, in a volume of 20 ml/kg, 0.50 h before the subcutaneous injection of 16 mg/kg of apomorphine.
# [12] = test system: rats; assay: Overall behavior and reactivities in rats; format: in vivo; details: i.p.
# Description: as §1
# (§2) Groups of 3 animals are observed before and then 0.25 h, 0.50 h, 1 h, 2 h, 3 h and 24 h after the administration of CRL 41 378. The following observations are made:
# (§3) Groups of 3 animals are observed before and then 0.25 h, 0.50 h, 1 h, 2 h, 3 h and 24 h after the administration of CRL 41 329.
# [13] = test system: mice; assay: Intergroup aggressiveness; format: in vivo; details: mice, i.p.
# Description: as §1
# After they have stayed for 3 weeks in the two halves of a cage divided by an opaque partition, groups of 3 mice receive CRL 41 378. Half an hour later, the two groups from the same cage are brought together by removal of the partition and the number of fights which occur in 10 minutes is noted.
# [14] = test system: mice; assay: Overall behavior and reactivities in mice; format: in vivo; details: i.p.
# Description: as §1, §2, §3
# [15] = test system: stereotypies induced by amphetamine; assay: Interaction with amphetamine (rats); format: in vivo; details: i.p.; amphetamine 2 mg/kg
# Description: as §1
# Amphetamine (2 mg/kg) is injected intraperitoneally into groups of 6 rats 30 minutes after the administration of CRL 41 378.
# [16] = test system: mice; assay: Spontaneous motility (actimeter); format: in vivo; details: i.p.
# Description: as §1
# 0.5 h after they have received CRL 41 378, the mice (6 per dose, 12 control animals) are placed in an actimeter, where their motility is recorded for 30 minutes.
# [17] = test system: mice; assay: Motility reduced by hypoxic aggression (acute hypobaric anoxia); format: in vivo; details: i.p.
# Description: In these tests, solutions of the said products in distilled water were administered intraperitoneally in a volume of 20 ml/kg to male mice and in a volume of 5 ml/kg to male rats.
# [18] = test system: mice; assay: Electric shock; format: in vivo; details: i.p.
# Description: as §1
# The test is performed on groups of 10 mice 30 minutes after the administration of CRL 41 378.
# [19] = i.p., nialamide + (±)-5-HTP, male mice
smiles,measurement,setting,value
"CC1=NCC(c2ccccc2)CN1.Cl (centres unmarked) [CRL 41 352, 2-methyl-5-phenyl-1,4,5,6-tetrahydropyrimidine hydrochloride]",action on hypothermia induced by oxotremorine,[1],significant antagonism (as from the lowest doses used) of the hypothermia induced by apomorphine and oxotremorine
same,action on hypothermia induced by apomorphine,[2],significant antagonism (as from the lowest doses used) of the hypothermia induced by apomorphine and oxotremorine
same,teratogenic effects,[3],devoid of harmful teratogenic effects on pregnant rabbits
same,resumption in the motor activity of mice accustomed to their enclosure,[4],a resumption in the motor activity of mice accustomed to their enclosure
same,antidepressant effects,[5]; i.p.,antidepressant effects which are very distinct
same,sedative effects,[5]; i.p.,sedative effects appearing at very high doses
same,stimulant effects,[5]; i.p.,"a stimulant effect which is very moderate, appearing at high doses"
same,overall neuropsychopharmacological profile,[5],principally an antidepressant having a very slight stimulant component and a very weak sedative component
same,period of immobility,[6],"no decrease in the period of immobility due to ""despair"""
same,toxic signs in the animals treated,[7]; 64 mg/kg i.p.,all the animals treated exhibit sedation and a decrease in the breathing rate
same,LD0 (maximum non-lethal dose),[7]; intraperitoneal,greater than 64 mg/kg
same,LD30,[7]; intraperitoneal,~128 mg/kg
same,action on hypothermia induced by reserpine,[8],more moderate antagonism of the hypothermia induced by reserpine
same,effectiveness in ambulant patients with depressive symptomatology,"[9]; asthenia, slowing down or both psycho-intellectual and motor inhibition",particularly effective
same,results in human therapy (depression),[9]; daily oral administration to adults,excellent results
same,analogy with β-adrenergic stimulants in the 5-HTP procedure,[10]; 5-HTP + MAOI,effects analogous to those of isoprenaline
same,intensity of potentiation of 5-HTP effects,"[10]; higher doses, 5-HTP + MAOI, male mice",the potentiation being very intense at the doses of 8 to 32 mg/kg
same,head twitches,[10]; [19],distinctly potentiate the partial trembling and the head twitches
same,partial trembling,[10]; [19],distinctly potentiate the partial trembling and the head twitches
same,minimal effective dose,[11],≥ 0.5 mg/kg
same,overall behavior and reactivities,[12]; 4 mg/kg and 16 mg/kg,mydriasis
same,overall behavior and reactivities,[12]; 16 mg/kg,a decrease in the breathing rate
same,intergroup aggressiveness (number of fights),[13],a decrease in the number of fights in the intergroup aggressiveness test
same,overall behavior and reactivities,"[14]; 0.5 mg/kg, 2 mg/kg, 8 mg/kg and 32 mg/kg",no distinct modification of the behavior and reactivities
"CC1(C)NCC(O)(c2ccccc2)CN1 [CRL 41 365, 2,2-dimethyl-5-hydroxy-5-phenyl-1,2,3,4,5,6-hexahydropyrimidine]",action on stereotypies induced by amphetamine,[15],"at all the doses studied, this product potentiates the stereotypies induced by amphetamine"
same,sedative effects,[5]; i.p.,"sedation with a decrease in the reactivities in rats and mice, hypothermia in mice"
same,overall neuropsychopharmacological profile,[5],essentially a sedative
same,period of immobility,[6],a very moderate decrease in the period of immobility of mice which have been forcibly immersed
same,LD0 (maximum non-lethal dose),[7]; intraperitoneal,greater than 512 mg/kg
same,overall behavior and reactivities,[12]; 8 mg/kg,no distinct modification of the behavior and reactivities compared with the control animals
same,overall behavior and reactivities,[12]; 32 mg/kg,sedation and a decrease in the breathing rate for 1 h; also recorded: a decrease in the reactivity to touch for 0.5 h
same,overall behavior and reactivities,[12]; 128 mg/kg,sedation and a decrease in the breathing rate for 3 h; also recorded: a decrease in the reactivity to touch for 1 h
same,overall behavior and reactivities,[14]; 256 mg/kg,"sedation, for 1 h; also recorded: a decrease in the heart rate for 1 h; also recorded: a decrease in the reactivity to touch for 0.5 h; also recorded: hypothermia for 3 h"
same,"hypothermia, maximum intensity","[14]; 256 mg/kg, 0.5 h after administration",-1.6 °C
same,overall behavior and reactivities,[14]; 16 and 64 mg/kg,no distinct modification of the behavior and reactivities compared with the control animals
"CN1C=NCC(c2ccccc2)C1.Cl (centres unmarked) [CRL 41 337, 1-methyl-5-phenyl-1,4,5,6-tetrahydropyrimidine hydrochloride]",action on hypothermia induced by oxotremorine,[1],"antagonism of the hypothermia induced by apomorphine, reserpine and oxotremorine"
same,spontaneous motor activity,[16],a decrease in the motor activity
same,action on hypothermia induced by apomorphine,[2],"antagonism of the hypothermia induced by apomorphine, reserpine and oxotremorine"
same,motor recovery after acute hypobaric hypoxia,[17],"at high doses, CRL 41 337 paradoxically causes an improvement in the motor recovery of mice after acute hypobaric hypoxia"
same,resumption in the motor activity of mice accustomed to their enclosure,[4],a resumption in the motor activity of mice accustomed to their enclosure
same,lethal effects of electric shock,[18],"at a high dose, CRL 41 337 causes aggravation of the lethal effects of electric shock"
same,antidepressant effects,[5]; i.p.,antidepressant effects
same,peripheral anticholinergic activity,[5]; i.p.,no anticholinergic action
same,stimulant effects,[5]; i.p.,no stimulation of the spontaneous motor activity
same,peripheral α-adrenergic stimulant effects,"[5]; i.p., hydrochloride",peripheral α-adrenergic stimulant effects; also recorded: mydriasis in rats
same,sedative effects,"[5]; i.p., hydrochloride",sedative effects; also recorded: hypothermia
same,overall neuropsychopharmacological profile,[5]; hydrochloride,acts principally as an antidepressant; also recorded: resemble those of β-adrenergic stimulants
same,period of immobility,[6]; hydrochloride,no modification of the period of immobility due to despair; also recorded: no effect on the immobility due to despair
same,LD0 (maximum non-lethal dose),[7]; intraperitoneal,greater than 256 mg/kg
same,LD60,[7]; intraperitoneal,about 500 mg/kg
same,LD100 (minimum dose lethal to all the animals),[7]; intraperitoneal,less than or equal to 1000 mg/kg
same,action on hypothermia induced by reserpine,[8],"antagonism of the hypothermia induced by apomorphine, reserpine and oxotremorine"
same,action on ptosis induced by reserpine,[8],antagonism of the ptosis induced by reserpine
same,overall behavior and reactivities,[12]; 1 and 4 mg/kg,no distinct modification of the behavior and reactivities compared with the control animals
same,overall behavior and reactivities,[12]; 16 and 64 mg/kg,mydriasis
same,intergroup aggressiveness (number of fights),[13],a decrease in the intergroup aggressiveness
same,overall behavior and reactivities,[14]; 128 mg/kg,moderate hypothermia (-1.6 °C one hour after administration) for 3 h
same,moderate hypothermia,"[14]; 128 mg/kg, one hour after administration",-1.6 °C
same,overall behavior and reactivities,[14]; 2 to 32 mg/kg,no distinct modification of the behavior and reactivities compared with the control animals
